# Experimental data published in US9643967B2, “Pyrrolo[3,2-c]pyridine derivatives as TLR inhibitors” (TAKEDA PHARMACEUTICAL COMPANY LIMITED, priority 2013, dated 2017).
# Molecular target: T1, hTLR9 (Homo sapiens, UniProt Q9NR96)
# T1 construct: expressed in transfected cells; host or cells: HEK-Blue-hTLR9 cells (HEK293)
# T1 sequence (Q9NR96 26-1032): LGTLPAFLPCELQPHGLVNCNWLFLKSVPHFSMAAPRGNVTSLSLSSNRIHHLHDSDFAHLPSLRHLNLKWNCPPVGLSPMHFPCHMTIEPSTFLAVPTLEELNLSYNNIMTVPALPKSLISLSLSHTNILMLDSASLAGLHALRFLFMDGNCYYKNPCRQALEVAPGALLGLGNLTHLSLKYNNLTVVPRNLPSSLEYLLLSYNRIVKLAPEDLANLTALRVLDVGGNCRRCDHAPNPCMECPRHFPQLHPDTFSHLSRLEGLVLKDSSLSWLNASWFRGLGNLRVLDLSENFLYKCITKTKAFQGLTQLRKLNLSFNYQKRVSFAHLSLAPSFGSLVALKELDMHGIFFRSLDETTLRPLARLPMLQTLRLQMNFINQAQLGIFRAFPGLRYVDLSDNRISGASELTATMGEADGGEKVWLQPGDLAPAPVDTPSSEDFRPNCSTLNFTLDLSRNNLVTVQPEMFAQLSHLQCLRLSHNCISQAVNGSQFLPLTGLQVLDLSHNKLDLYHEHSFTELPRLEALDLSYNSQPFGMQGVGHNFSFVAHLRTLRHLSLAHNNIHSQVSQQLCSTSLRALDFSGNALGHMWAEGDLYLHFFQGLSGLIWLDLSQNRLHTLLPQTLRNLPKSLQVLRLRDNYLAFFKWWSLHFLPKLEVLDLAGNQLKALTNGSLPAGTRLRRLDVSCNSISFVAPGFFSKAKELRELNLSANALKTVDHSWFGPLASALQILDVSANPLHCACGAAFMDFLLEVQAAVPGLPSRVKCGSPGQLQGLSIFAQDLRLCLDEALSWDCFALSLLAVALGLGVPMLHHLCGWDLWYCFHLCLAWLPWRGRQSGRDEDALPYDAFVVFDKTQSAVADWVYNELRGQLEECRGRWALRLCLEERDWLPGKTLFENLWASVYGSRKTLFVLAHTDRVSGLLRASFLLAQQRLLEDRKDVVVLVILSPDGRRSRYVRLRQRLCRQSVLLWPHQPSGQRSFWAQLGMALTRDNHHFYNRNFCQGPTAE
# Assay: hTLR9 antagonism (SEAP inhibition assay) in HEK-Blue-hTLR9 (HEK293) cells, ODN-2006 stimulated
# Assay type: cell-based
# Conditions: 1 μM; SEAP, HEK-Blue-hTLR9 cells
# Method: hTLR9 Antagonism (SEAP Inhibition Assay) in HEK293 Cell Lines
# The SEAP reporter gene in HEK-Blue™-hTLR9 cells is placed under the control of the IFN-b minimal promoter fused to five NF-kB and AP-1 binding sites. The stimulation with a TLR9 ligand (ODN-2006) activates NF-kB and AP-1 which induces the production of SEAP. Levels of SEAP are determined with QUANTI-Blue™ detection medium that turns purple/blue in the presence of alkaline phosphatase. Decrease in the levels of SEAP production as indicated by reduction in absorbance at 650 nm is directly co-related with the TLR9 inhibitory activity of the antagonist (NCE).
# HEK-Blue™-hTLR9 cells were maintained in DMEM with 10% FBS, 1% Penicillin/Streptomycin/Amphotericin (complete growth medium) and 0.2% Normocin. For the assay, cells were dissociated by washing in 1×PBS and re-suspended in complete DMEM. Cells were seeded at a density of 20000 cells per well; (40 μl per well) in a 384 well assay plate.
# 5 μl of 10× antagonist (NCE) was added to the cells in triplicates for each concentration. The plate was incubated for half an hour at 37° C. with 5% CO2. 5 μl of agonist (ODN-2006) was added and the plate was incubated overnight for 18 hours at 37° C. with 5% CO2. 5 μl of supernatant was transferred to a 384 well reading plate and to this 45 μl of Quanti-Blue™ detection reagent was added. The plate was then incubated for an hour at 37° C. SEAP activity in the supernatant was indicated by change in the pink color of Quanti-Blue™ detection reagent to purple/blue and the absorbance was read at 650 nm in the end point mode.
row,Structure (SMILES),hTLR9 inhibitory activity (% at 1 μM) [%]
1,"CC(C)N1CCN(C2CCC(c3nccc4[nH]c(CN5CCOCC5)cc34)CC2)CC1 (centres unmarked) [Example A80, 4-[[4-[4-(4-isopropylpiperazin-1-yl)cyclohexyl]-1H-pyrrolo[3,2-c]pyridin-2-yl]methyl]morpholine]",95.8

# Same assay, conditions: HEK-Blue hTLR9, 1 μM; SEAP, HEK-Blue-hTLR9 cells; read-out: hTLR9 inhibitory activity (% at 1 μM)
row,Structure (SMILES),inhibition at 1 µM [%]
1,"Cc1cc2[nH]c(CN3CCOCC3)cc2c(-c2ccc(C3CCN(C(C)C)CC3)cc2)n1 [Example A51, 4-[[4-[4-(1-isopropyl-4-piperidyl)phenyl]-6-methyl-1H-pyrrolo[3,2-c]pyridin-2-yl]methyl]morpholine]",100
2,"CC(C)N1CC=C(c2ccc(-c3nccc4[nH]c(CN5CCOCC5)cc34)cn2)CC1 [Example A52, 4-[[4-[6-(1-isopropyl-3,6-dihydro-2H-pyridin-4-yl)-3-pyridyl]-1H-pyrrolo[3,2-c]pyridin-2-yl]methyl]morpholine]",84.5
3,"CC(C)N1CCN(c2ccc(-c3nccc4[nH]c(CN5CCOCC5)cc34)cn2)CC1 [Example A53, 4-[[4-[6-(4-isopropylpiperazin-1-yl)-3-pyridyl]-1H-pyrrolo[3,2-c]pyridin-2-yl]methyl]morpholine]",77
4,"CC(C)N1CCC(n2cc(-c3nccc4[nH]c(CN5CCOCC5)cc34)cn2)CC1 [Example A54, 4-[[4-[1-(1-isopropyl-4-piperidyl)pyrazol-4-yl]-1H-pyrrolo[3,2-c]pyridin-2-yl]methyl]morpholine]",95.4
5,"CC(C)N1CCN(Cc2ccc(-c3nccc4[nH]c(CN5CCOCC5)cc34)cc2)CC1 [Example A55, 4-[[4-[4-[(4-isopropylpiperazin-1-yl)methyl]phenyl]-1H-pyrrolo[3,2-c]pyridin-2-yl]methyl]morpholine]",96.5
6,"CC(C)N1CCC(Oc2ccc(-c3nccc4[nH]c(CN5CCOCC5)cc34)cc2)CC1 [Example A56, 4-[[4-[4-[(1-isopropyl-4-piperidyl)oxy]phenyl]-1H-pyrrolo[3,2-c]pyridin-2-yl]methyl]morpholine]",99.5
7,"CC(C)N1CCN(c2cccc(-c3nccc4[nH]c(CN5CCOCC5)cc34)c2)CC1 [Example A57, 4-[[4-[3-(4-isopropylpiperazin-1-yl)phenyl]-1H-pyrrolo[3,2-c]pyridin-2-yl]methyl]morpholine]",96.9
8,"CN1CCN(Cc2ccc(-c3nccc4[nH]c(CN5CCOCC5)cc34)cc2)CC1 [Example A60, 4-[[4-[4-[(4-methylpiperazin-1-yl)methyl]phenyl]-1H-pyrrolo[3,2-c]pyridin-2-yl]methyl]morpholine]",86
9,"CN1CCN(c2cccc(-c3nccc4[nH]c(CN5CCOCC5)cc34)c2)CC1 [Example A61, 4-[[4-[3-(4-methylpiperazin-1-yl)phenyl]-1H-pyrrolo[3,2-c]pyridin-2-yl]methyl]morpholine]",89.5
10,"CN1CCC(Oc2ccc(-c3nccc4[nH]c(CN5CCOCC5)cc34)cc2)CC1 [Example A62, 4-[[4-[4-[(1-methyl-4-piperidyl)oxy]phenyl]-1H-pyrrolo[3,2-c]pyridin-2-yl]methyl]morpholine]",98.2
11,"CN1CCC(n2cc(-c3nccc4[nH]c(CN5CCOCC5)cc34)cn2)CC1 [Example A63, 4-[[4-[1-(1-methyl-4-piperidyl)pyrazol-4-yl]-1H-pyrrolo[3,2-c]pyridin-2-yl]methyl]morpholine]",93.4
12,"CC(C)N1CCC(c2ccc(-c3nccc4[nH]c(CN5CCOCC5)cc34)cn2)CC1 [Example A64, 4-[[4-[6-(1-isopropyl-4-piperidyl)-3-pyridyl]-1H-pyrrolo[3,2-c]pyridin-2-yl]methyl]morpholine]",73
13,"CC(C)N1CCC(c2ccc(-c3nccc4[nH]c(CN5CCOCC5)cc34)cc2)CC1 [Example A70, 4-[[4-[4-(1-isopropyl-4-piperidyl)phenyl]-1H-pyrrolo[3,2-c]pyridin-2-yl]methyl]morpholine]",100
14,"CC(C)N1CCN(c2ccc(-c3nccc4[nH]c(CN5CC(O)C5)cc34)cc2)CC1 [Example A72, 1-[[4-[4-(4-isopropylpiperazin-1-yl)phenyl]-1H-pyrrolo[3,2-c]pyridin-2-yl]methyl]azetidin-3-ol]",100
15,"CC(C)N1CCN(c2ccc(-c3nccc4[nH]c(CN5CCC[C@@H]5C(=O)O)cc34)cc2)CC1 [Example A74, (2R)-1-[[4-[4-(4-isopropylpiperazin-1-yl)phenyl]-1H-pyrrolo[3,2-c]pyridin-2-yl]methyl]pyrrolidine-2-carboxylic acid]",89.4
16,"c1cc2[nH]c(CN3CCOCC3)cc2c(-c2ccc(N3CCN(C4COC4)CC3)cc2)n1 [Example A81, 4-[[4-[4-[4-(oxetan-3-yl)piperazin-1-yl]phenyl]-1H-pyrrolo[3,2-c]pyridin-2-yl]methyl]morpholine]",64

# Other lines, results leading:
row,inhibition at 1 µM [%],Structure (SMILES)
1,100,"CC(C)N1CCN(c2ccc(-c3nccc4[nH]c(CCN5CCOCC5)cc34)cc2)CC1 [Example B1, 4-[2-[4-[4-(4-isopropylpiperazin-1-yl)phenyl]-1H-pyrrolo[3,2-c]pyridin-2-yl]ethyl]morpholine]"
2,100,"CN1CCN(c2ccc(-c3nccc4[nH]c(CCN5CCOCC5)cc34)cc2)CC1 [Example B2, 4-[2-[4-[4-(4-methylpiperazin-1-yl)phenyl]-1H-pyrrolo[3,2-c]pyridin-2-yl]ethyl]morpholine]"
3,100,"Cc1cc2[nH]c(CCN3CCOCC3)cc2c(-c2ccc(N3CCN(C(C)C)CC3)cc2)n1 [Example B3, 4-[2-[4-[4-(4-isopropylpiperazin-1-yl)phenyl]-6-methyl-1H-pyrrolo[3,2-c]pyridin-2-yl]ethyl]morpholine]"
4,100,"Cc1cc2[nH]c(CCN3CCOCC3)cc2c(-c2ccc(N3CCN(C)CC3)cc2)n1 [Example B4, 4-[2-[6-methyl-4-[4-(4-methylpiperazin-1-yl)phenyl]-1H-pyrrolo[3,2-c]pyridin-2-yl]ethyl]morpholine]"
5,78,"Cc1cc2[nH]c(CCN3CCCCC3)cc2c(-c2ccc(N3CCN(C(C)C)CC3)cc2)n1 [Example B5, 4-[4-(4-isopropylpiperazin-1-yl)phenyl]-6-methyl-2-[2-(1-piperidyl)ethyl]-1H-pyrrolo[3,2-c]pyridine]"
6,79.7,"Cc1nc(-c2ccc(N3CCN(C(C)C)CC3)cc2)c2cc(CCN3CCOCC3)[nH]c2c1C [Example B6, 4-[2-[4-[4-(4-isopropylpiperazin-1-yl)phenyl]-6,7-dimethyl-1H-pyrrolo[3,2-c]pyridin-2-yl]ethyl]morpholine]"
7,81.6,"Cc1nc(-c2ccc(N3CCN(C)CC3)cc2)c2cc(CCN3CCOCC3)[nH]c2c1C [Example B7, 4-[2-[6,7-dimethyl-4-[4-(4-methylpiperazin-1-yl)phenyl]-1H-pyrrolo[3,2-c]pyridin-2-yl]ethyl]morpholine]"
8,93.7,"CCN1CCN(c2ccc(-c3nc(C)c(C)c4[nH]c(CCN5CCOCC5)cc34)cc2)CC1 [Example B8, 4-[2-[4-[4-(4-ethylpiperazin-1-yl)phenyl]-6,7-dimethyl-1H-pyrrolo[3,2-c]pyridin-2-yl]ethyl]morpholine]"

# Same assay, conditions: HEK-Blue hTLR9, read-out: hTLR9 inhibitory activity (% at 1 μM)
row,Structure (SMILES),inhibition at 1 µM [%]
1,"CC(C)N1CCN(c2ccc(-c3nccc4[nH]c(C(=O)N5CCOCC5)cc34)cc2)CC1 [Example A82, [4-[4-(4-isopropylpiperazin-1-yl)phenyl]-1H-pyrrolo[3,2-c]pyridin-2-yl]-morpholino-methanone]",98
